{"source": "patent US11065296B2", "about": "“Antimicrobial peptide, its analog and use” (City University of Hong Kong, priority 2018, dated 2021)", "key": {"[1]": {"system": "Escherichia coli BL21 (DE3)", "type": "cell-based", "method": "(§3) MIC denotes the lowest concentration of an antimicrobial agent that can inhibit the growth of bacteria after overnight incubation.\n(§4) Bacteria were grown in their respective media (Table 2 above) overnight at 37° C. or room temperature with constant shaking and then diluted to 10^6 CFU/ml in their respective medium. Stock solutions of peptides at 0.68 mM were prepared in distilled water. Bacteria and peptide were incubated (50 μl: 50 μl) to make the final peptide concentrations (0.68, 3.4, 6.8, 13.7, 34.1, 68.3, 136.5 μM) in a 96-microtitre plate and incubated for 24 h with constant shaking. […] Absorbance at 600 nm was detected every 3 h up to 24 h to obtain the growth curves. The minimal inhibition concentration (MIC) was defined as the lowest concentration of an antimicrobial agent that could inhibit the growth of bacteria after overnight incubation."}, "E. tarda [2]": {"system": "E. tarda", "assay": "Host resistance assay, Experiment One: co-injection of bacteria and peptide", "type": "in vivo, Medaka", "details": "co-injected with Peptide A (0.68 mM, 1 μl) and E. tarda", "experimental": "(§1) FIG. 11A is a plot showing the effect of Peptide A on viability of cultured mammalian cells, incubated for 48 h in the presence of Peptide A at different concentrations (μg/ml), as determined by MTT assay. Cell viability represented as peptide treated cell numbers over medium-only control. Statistically significant difference as compared to controls (*: p<0.05, **: p<0.01, n=4). FIG. 11B is a plot showing the ability of Peptide A to protect medaka from lethal challenge of E. tarda ([…]). Medaka was injected with 1 μl of Peptide A (0.68 mM), with 1 μl of E. tarda (10^7 CFU/ml) and Peptide A (0.68 mM) mixture, or with E. tarda alone (1 μl of E. tarda:10^7 CFU/ml). […] 20 fish per group. Log-rank (Mantel-Cox) test was applied for the comparison of survival curves (**: p<0.01).\n(§2) The efficacy of the synthesized AMP to protect medaka against infection was characterized using host resistance assays with intraperitoneal (i.p.) injection of bacteria using a micro-injection machine (PV820 Pneumatic PicoPump). […] The number of dead fish was counted on a daily basis until two weeks after the injections."}, "[3]": {"system": "panel of Gram-positive and Gram-negative bacteria", "assay": "Antibacterial activity against a panel of bacteria (summary)", "type": "cell-based", "details": "including beta-lactam resistant bacteria", "method": "The antibacterial activity of the Peptide A against a panel of Gram-positive and Gram-negative bacteria (FIG. 5A, 5B and Table 2) was determined.\nas §4"}, "Pseudomonas aeruginosa A": {"system": "Pseudomonas aeruginosa A", "type": "cell-based"}, "[4]": {"assay": "Toxicity in adult Medaka fish, intraperitoneal injection", "type": "in vivo", "details": "intraperitoneally injected with 1 μg, up to 14 days", "experimental": "as §1, §2"}, "[5]": {"system": "Staphylococcus aureus ATCC 6538", "type": "cell-based", "method": "as §3, §4"}, "CpxA": {"system": "CpxA", "details": "E. tarda, 6.8 μM, 1 hr", "method": "FIG. 9B is a plot showing the relative expression levels of CpxA, CpxR and RpoE in E. tarda upon treatment with Peptide A for 60 min at 6.8 μM. Results are expressed as 2^(−Delta Delta C (T)). FIG. 9C is a plot showing the CpxR gene expression in E. tarda after treatment with Peptide A (6.8 μM), Piscidin (7.5 μM), Ampicillin (143 μM) and Peptide A+Ampicillin (3.4 μM; 71.5 μM) for 1 hour. Results are expressed as 2^(−Delta Delta C (T)). […] Results expressed as log 2 fold change normalized with control group.\nE. tarda or E. coli were treated with AMP or antibiotics or not treated as the control at inhibitory or subinhibitory for 1 hr. After that, the total RNA of the cells were collected by using the RNAprep pure cell/bacteria kit (TIANGEN), then reverse-transcribed into cDNA by using the One-Step FastQuant RT reagent kit with gDNase (TIANGEN). 18S ribosomal RNA (18S) was used as reference gene for qPCR normalization. Each group has 6 biological replicates. In brief, quantitative polymerase chain reaction (qPCR) assays were performed by using fluorescent dye powder SYBR Green PCR Master Mix and the ABI 7500 System. Gene-specific primers were designed with Primer-BLAST (NCBI). […] The relative expression levels (fold change) of the tested genes were calculated by using the relative expression based on the 2^(−Delta Delta C (T)) Method."}, "[6]": {"system": "Gram positive (S. aureus) and negative (E. coli) bacteria", "assay": "Toxicity screen of synthesized shortlisted SCPs against bacteria", "type": "cell-based", "details": "synthesized peptides", "from_the_text": "Of the remaining SCPs, 1519 (24%) satisfy the CAMP prediction algorithm for AMPs as potential AMPs (FIG. 3). In order to increase the accuracy of prediction, the inventors further limited the shortlisted AMPs to amphipathic and cationic peptides, since they account for the majority of currently known AMPs. There are 430 peptides from the SCP database that satisfied these criteria. To assess the accuracy of the AMP prediction, the inventors synthesized 53 of the shortlisted SCPs and tested their toxicity against both Gram positive (S. aureus) and negative (E. coli) bacteria."}, "[7]": {"system": "Staphylococcus aureus ATCC 29213", "type": "cell-based", "method": "as §3, §4"}, "[8]": {"system": "Aeromonas hydrophila ATCC 49140", "type": "cell-based", "method": "as §3, §4"}, "[9]": {"system": "Acinetobacter baumannii ATCC 19606", "type": "cell-based", "method": "as §3, §4"}, "E. tarda [10]": {"system": "E. tarda", "assay": "Host resistance assay, Experiment Two: pre-injection 2 h before bacteria", "type": "in vivo, Medaka", "details": "injected 2 h prior to E. tarda", "experimental": "as §1\nThe efficacy of the synthesized AMP to protect medaka against infection was characterized using host resistance assays with intraperitoneal (i.p.) injection of bacteria using a micro-injection machine (PV820 Pneumatic PicoPump). In Experiment One, 80 medaka fish were used and divided into four groups (20 fish in each group, male, 6 months): (1) Group 1 was injected with only 1 μl of PBS in each fish; (2) Group 2 was injected with only 1 μl of novel AMP (0.68 mM) in each fish; (3) Group 3 was injected with 1 μl of bacteria (at a titer of 5×10^7 CFU/ml); and (4) bacteria and novel AMP were mixed for 5 min and then 1 μl of the mixture was injected into Group 4 (Bacteria: 5×10^7 CFU/ml, AMP: 0.68 mM). In Experiment Two, 60 fish were used and divided into three groups: each fish was injected with 1 μl of PBS, ampicillin (5.7 mM) or Peptide A (1.36 mM). The fish were anesthetized in MS222 for 30 s before microinjection. After two hours, 1 μl of bacteria (5×10^7 CFU/ml) was injected into the fish. All of the fishes were kept under a static condition of 26° C.±1° C., with 14:10 hrs of a light-dark cycle. The water was replaced every two days. The fish were fed three times each day. The number of dead fish was counted on a daily basis until two weeks after the injections."}, "[11]": {"system": "Vibrio alginolyticus ATCC 33840", "type": "cell-based", "method": "as §3, §4"}, "Edwardsiella tarda PE210": {"system": "Edwardsiella tarda PE210", "type": "cell-based", "method": "as §3, §4"}, "[12]": {"system": "Multidrug-resistant S. aureus ATCC BAA-44", "type": "cell-based", "method": "as §3, §4"}, "CpxR": {"system": "CpxR", "assay": "Quantitative real-time PCR", "type": "cell-based", "details": "E. coli", "from_the_text": "Each group has 6 biological replicates. […] Gene-specific primers were designed with Primer-BLAST (NCBI)."}, "[13]": {"system": "Escherichia coli ATCC 10536", "type": "cell-based", "method": "as §3, §4"}, "E. coli": {"system": "E. coli", "type": "cell-based"}, "Streptococcus Faecalis": {"system": "Streptococcus Faecalis", "type": "cell-based", "method": "as §3, §4"}, "[14]": {"system": "six mammalian cell lines (HeLa, MDA-MB, MC3T3, MCF7, H1299, and AG06858)", "assay": "In vitro toxicity, 48 hour MTT assay", "type": "cell-based, Human; Mouse", "details": "concentrations close to the MIC for gram-negative bacteria", "experimental": "as §1\nMammalian cell lines (Hela, MDA MB, MC3T3, MCF7, H1299, and AG06858) were seeded into 96 well-plates one day before treatment at a density of 3×10^5 cells/ml for a 48 hour MTT assay. The peptides were directly dissolved in the medium to make a 136.5 μM stock. […] The resulting solution was measured by using a microplate reader (BMG Polarstar Optima) at a wavelength of 570 nm. The optical density (OD) values were recorded and cell viability was calculated based on the OD readings normalized to the untreated cells."}, "[15]": {"system": "Streptococcus pyogenes ATCC 14289", "type": "cell-based", "method": "as §3, §4"}, "E. cloacae BAA-1143": {"system": "E. cloacae BAA-1143", "type": "cell-based", "method": "as §3, §4"}}, "note": "“Also recorded” adds a separate entry of the source. Peptide text beside a SMILES is read from it.", "data": [{"smiles": "CC[C@H](C)[C@H](N)C(=O)N[C@@H](CCCNC(=N)N)C(=O)N[C@H](C(=O)N[C@H](C(=O)N[C@@H](CC(C)C)C(=O)N[C@@H](CCCNC(=N)N)C(=O)N[C@@H](C)C(=O)N[C@@H](CCC(N)=O)C(=O)NCC(=O)N[C@@H](C)C(=O)N[C@@H](CC(C)C)C(=O)N[C@@H](CCCCN)C(=O)N[C@H](C(=O)O)[C@@H](C)CC)[C@@H](C)CC)[C@@H](C)CC", "note": "[Peptide A, IRIILRAQGALKI] (H-IRIILRAQGALKI-OH; N-terminus and C-terminus assumed)", "values": [{"measurement": "MICs", "setting": "[1]", "value": 5.5, "unit": "µM"}, {"measurement": "medaka survival rate", "setting": "E. tarda [2]", "value": 80, "unit": "%"}, {"measurement": "effect on antibiotic resistant strains", "setting": "[3]", "value": "effective on a number of antibiotic resistant strains"}, {"measurement": "MICs", "setting": "Pseudomonas aeruginosa A", "value": 34.1, "unit": "µM"}, {"measurement": "adverse effect", "setting": "[4]", "value": "no adverse effect"}, {"measurement": "MICs", "setting": "[5]", "value": 13.7, "unit": "µM"}, {"measurement": "CpxA mRNA expression", "setting": "CpxA", "value": "remains unaffected"}, {"measurement": "toxicity / antimicrobial activity against bacteria", "setting": "[6]", "value": "demonstrated toxicity against both Gram positive and negative bacteria"}, {"measurement": "MICs", "setting": "[7]", "value": 64, "unit": "µM"}, {"measurement": "MICs", "setting": "[8]", "value": 13.7, "unit": "µM"}, {"measurement": "MICs", "setting": "[9]", "value": 6.8, "unit": "µM"}, {"measurement": "initial survival rate", "setting": "E. tarda [10]; one day post injection, Peptide A 1.37 mM, Ampicillin 5.7 mM, 1 μl", "value": 85, "unit": "%"}, {"measurement": "effect on E. tarda infection / surviving fish", "setting": "E. tarda [10]; two weeks after infection", "value": "still higher than the controls"}, {"measurement": "MICs", "setting": "[11]", "value": 34.1, "unit": "µM"}, {"measurement": "MICs", "setting": "Edwardsiella tarda PE210", "value": 6.8, "unit": "µM"}, {"measurement": "MICs", "setting": "[12]", "value": 21.8, "unit": "µM"}, {"measurement": "CpxR expression", "setting": "CpxR", "value": "inhibition of CpxR"}, {"measurement": "MICs", "setting": "[13]", "value": 3.4, "unit": "µM"}, {"measurement": "MIC for E. coli", "setting": "E. coli", "value": 3.4, "unit": "µM"}, {"measurement": "MICs", "setting": "Streptococcus Faecalis", "value": 34.1, "unit": "µM"}, {"measurement": "cytotoxic effect (cell viability, MTT)", "setting": "[14]", "value": "No obvious toxicity; also recorded: relatively nontoxic"}, {"measurement": "MICs", "setting": "[15]", "value": 34.1, "unit": "µM"}, {"measurement": "MICs", "setting": "E. cloacae BAA-1143", "value": 21.8, "unit": "µM"}]}]}
